Each structure is given as a SMILES string.

The record followed here is patent publication US11912723B2, “KRAS modulators and uses thereof” (Quanta Therapeutics, Inc., priority 2022, dated 2024).

The target of this experiment is T1, KRAS G12D/RAF1 (Homo sapiens, UniProt P01116, G12D).
T1 construct: KRAS (1-169) proteins were expressed in E. coli at 18° C; His6-MBP (N, cleaved yes); made in house; host or cells: E. coli
T1 sequence (P01116 1-169 isoform P01116-2 G12D): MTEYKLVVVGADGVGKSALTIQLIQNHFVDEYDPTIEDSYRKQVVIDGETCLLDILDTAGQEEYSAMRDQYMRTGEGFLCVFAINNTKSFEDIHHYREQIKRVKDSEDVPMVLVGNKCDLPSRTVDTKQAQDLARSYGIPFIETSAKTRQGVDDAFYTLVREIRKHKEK
As to the kind of experiment: Protein-protein interaction (PPI) HTRF assay KRAS G12D/RAF1. The experiment is classed as binding. To be noted: KRAS G12D/RAF1, GppNHp-loaded KRAS; 30 minutes pre-incubation. In short, it runs like this:
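Biotinylated GppNHp-loaded RAS (1-169) on streptavidin-d2 acceptor and His-RAF1 RBD (52-131) on anti-His Tb donor, each prepared at 16 nM in pH 7.5 Tris buffer. Compound preincubated with RAS 30 min, then RAF1 added for 1 h at room temperature. IC50 from HTRF 665/615 ratio, normalized to no compound (0%) and untagged RAF1 (100%).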
In turn, `OC1CCCN(c2nc(OC[C@@]34CCCN3C[C@H](F)C4)nc3c2COC2(CCc4c(Cl)cccc42)C3)CC1` (mixture of isomers) [Compound 6, 1-[4′-chloro-2-[[rac-(2R,8S)-2-fluoro-1,2,3,5,6,7-hexahydropyrrolizin-8-yl]methoxy]spiro[5,8-dihydropyrano[4,3-d]pyrimidine-7,1′-indane]-4-yl]azepan-4-ol] gave an IC50 of more than 100 µM. `CN(C)C(=O)c1cc2n(n1)CCCN(c1nc(OC[C@@]34CCCN3C[C@H](F)C4)nc3c1COC1(CCCc4c(Cl)cc(O)cc41)C3)C2` (mixture of isomers) [Compound 43, 5-[5′-chloro-7′-hydroxy-2-[[rac-(2R,8S)-2-fluoro-1,2,3,5,6,7-hexahydropyrrolizin-8-yl]methoxy]spiro[5,8-dihydropyrano[4,3-d]pyrimidine-7,1′-tetralin]-4-yl]-N,N-dimethyl-4,6,7,8-tetrahydropyrazolo[1,5-a][1,4]diazepine-2-carboxamide] yielded a half-maximal inhibitory concentration (IC50) of 10 to 100 µM.

Turning to `C=C1CN2CCCC2(COc2nc3c(c(N4CCCn5nc(C(=O)N(C)C)c(Cl)c5C4)n2)CO[C@@]2(CCc4c(Cl)cccc42)C3)C1` (mixture of isomers) [Compound 54, 3-chloro-N,N-dimethyl-5-[rac-(7S)-4′-chloro-2-[(6-methylene-2,3,5,7-tetrahydro-1H-pyrrolizin-8-yl)methoxy]spiro[5,8-dihydropyrano[4,3-d]pyrimidine-7,1′-indane]-4-yl]-4,6,7,8-tetrahydropyrazolo[1,5-a][1,4]diazepine-2-carboxamide], the IC50 lay in the range of 10 to 100 µM. Take `Oc1ccc2c(c1)C1(CCC2)Cc2nc(OC[C@@]34CCCN3C[C@H](F)C4)nc(N3CCCCCC3)c2CO1` (single isomer, unassigned) [Compound 7]: the IC50 is more than 100 µM.

Consider `Oc1ccc2c(c1)C1(CCC2)Cc2nc(OC[C@@]34CCCN3C[C@H](F)C4)nc(N3CCCCCC3)c2CO1` (single isomer, unassigned) [Compound 8], for which the IC50 is more than 100 µM. The molecule `O=C1NC(=O)C2(CCCN(c3nc(OC[C@@]45CCCN4C[C@H](F)C5)nc4c3COC3(CCc5c(Cl)cccc53)C4)C2)N1` (single isomer, unassigned) [Compound 24A, (5*)-9-[(7*)-4′-chloro-2-[[(2R,8S)-2-fluoro-1,2,3,5,6,7-hexahydropyrrolizin-8-yl]methoxy]spiro[5,8-dihydropyrano[4,3-d]pyrimidine-7,1′-indane]-4-yl]-1,3,9-triazaspiro[4.5]decane-2,4-dione] had an IC50 of 10 to 100 µM.

`F[C@H]1CN2CCC[C@@]2(COc2nc3c(c(N4CCCCCC4)n2)COC2(CCc4c(Cl)cccc42)C3)C1` (stereo partly drawn) [Compound 1, 4′-(azepan-1-yl)-4-chloro-2′-(((2R,7aS)-2-fluorotetrahydro-1H-pyrrolizin-7a(5H)-yl)methoxy)-2,3,5′,8′-tetrahydrospiro[indene-1,7′-pyrano[4,3-d]pyrimidine]]: the IC50 is more than 100 µM.

Molecule `F[C@H]1CN2CCC[C@@]2(COc2nc3c(c(N4C[C@H]5CC[C@@H](C4)N5)n2)COC2(CCc4c(Cl)cccc42)C3)C1` (stereo partly drawn) [Compound 2, 4′-((1R,5S)-3,8-diazabicyclo[3.2.1]octan-3-yl)-4-chloro-2′-(((2R,7aS)-2-fluorotetrahydro-1H-pyrrolizin-7a(5H)-yl)methoxy)-2,3,5′,8′-tetrahydrospiro[indene-1,7′-pyrano[4,3-d]pyrimidine]] came in with an IC50 of 10 to 100 µM.

Take `OC1CCCN(c2nc(OC[C@@]34CCCN3C[C@H](F)C4)nc3c2COC2(CCCc4ccc(Br)cc42)C3)CC1` (stereo partly drawn) [Compound 4, 1-[7′-bromo-2-[[(2R,8S)-2-fluoro-1,2,3,5,6,7-hexahydropyrrolizin-8-yl]methoxy]spiro[5,8-dihydropyrano[4,3-d]pyrimidine-7,1′-tetralin]-4-yl]azepan-4-ol]: the IC50 is more than 100 µM. As for `F[C@H]1CN2CCC[C@@]2(COc2nc3c(c(N4CCCCCC4)n2)COC2(CCCc4c(Br)cccc42)C3)C1` (stereo partly drawn) [Compound 5, 4-(azepan-1-yl)-5′-bromo-2-[[(2R,8S)-2-fluoro-1,2,3,5,6,7-hexahydropyrrolizin-8-yl]methoxy]spiro[5,8-dihydropyrano[4,3-d]pyrimidine-7,1′-tetralin]], the IC50 lay within 10 to 100 µM. In turn, `F[C@H]1CN2CCC[C@@]2(COc2nc3c(c(N4C[C@H]5CC[C@@H](C4)N5)n2)COC2(CCCc4c(Br)cccc42)C3)C1` (stereo partly drawn) [Compound 10, 5′-bromo-4-(3,8-diazabicyclo[3.2.1]octan-3-yl)-2-[[(2R,8S)-2-fluoro-1,2,3,5,6,7-hexahydropyrrolizin-8-yl]methoxy]spiro[5,8-dihydropyrano[4,3-d]pyrimidine-7,1′-tetralin]] displayed an IC50 of more than 100 µM. The figure for `Oc1ccc2c(c1)C1(CCC2)Cc2nc(OC[C@@]34CCCN3C[C@H](F)C4)nc(N3CCCC(O)CC3)c2CO1` (stereo partly drawn) [Compound 14, 2-[[(2S,8R)-2-fluoro-1,2,3,5,6,7-hexahydropyrrolizin-8-yl]methoxy]-4-(4-hydroxyazepan-1-yl)spiro[5,8-dihydropyrano[4,3-d]pyrimidine-7,4′-tetralin]-6′-ol] is more than 100 µM; for `OC1CCCN(c2nc(OC[C@@]34CCCN3C[C@H](F)C4)nc3c2COC2(CCCc4c(Cl)cccc42)C3)CC1` (stereo partly drawn) [Compound 15, 1-[5′-chloro-2-[[(2R,8S)-2-fluoro-1,2,3,5,6,7-hexahydropyrrolizin-8-yl]methoxy]spiro[5,8-dihydropyrano[4,3-d]pyrimidine-7,1′-tetralin]-4-yl]azepan-4-ol] it is more than 100 µM; for `N#CC1CCCN(c2nc(OC[C@@]34CCCN3C[C@H](F)C4)nc3c2COC2(CCc4c(Cl)cccc42)C3)CC1` (stereo partly drawn) [Compound 16, 1-(4-chloro-2′-(((2R,7aS)-2-fluorotetrahydro-1H-pyrrolizin-7a(5H)-yl)methoxy)-2,3,5′,8′-tetrahydrospiro[indene-1,7′-pyrano[4,3-d]pyrimidin]-4′-yl)azepane-4-carbonitrile] it is more than 100 µM.

As to `OC1CCCN(c2nc(OC[C@@]34CCCN3C[C@H](F)C4)nc3c2COC2(CCCc4ccc(Cl)cc42)C3)CC1` (stereo partly drawn) [Compound 17, 1-(7-chloro-2′-(((2R,7aS)-2-fluorotetrahydro-1H-pyrrolizin-7a(5H)-yl)methoxy)-3,4,5′,8′-tetrahydro-2H-spiro[naphthalene-1,7′-pyrano[4,3-d]pyrimidin]-4′-yl)azepan-4-ol], the IC50 lay in the range of 10 to 100 µM. `F[C@H]1CN2CCC[C@@]2(COc2nc3c(c(N4CCC=CCC4)n2)COC2(CCc4c(Cl)cccc42)C3)C1` (stereo partly drawn) [Compound 18, 4′-chloro-2-[[(2R,8S)-2-fluoro-1,2,3,5,6,7-hexahydropyrrolizin-8-yl]methoxy]-4-(2,3,6,7-tetrahydroazepin-1-yl)spiro[5,8-dihydropyrano[4,3-d]pyrimidine-7,1′-indane]] displayed an IC50 of 10 to 100 µM. With `CN(C)C(=O)c1cc2n(n1)CCCN(c1nc(OC[C@@]34CCCN3C[C@H](F)C4)nc3c1CO[C@]1(CCc4c(Cl)cccc41)C3)C2` [Compound 27B, 5-[(7R)-4′-chloro-2-[[(2R,8S)-2-fluoro-1,2,3,5,6,7-hexahydropyrrolizin-8-yl]methoxy]spiro[5,8-dihydropyrano[4,3-d]pyrimidine-7,1′-indane]-4-yl]-N,N-dimethyl-4,6,7,8-tetrahydropyrazolo[1,5-a][1,4]diazepine-2-carboxamide], the IC50 lay in the range of 10 to 100 µM.

In the case of `CN1Cc2c(nc(OC[C@@]34CCCN3C[C@H](F)C4)nc2N2CCCCCC2)C[C@]12CCc1c(Cl)cccc12` [Compound 28A, (7S)-4-(azepan-1-yl)-4′-chloro-2-[[(2R,8S)-2-fluoro-1,2,3,5,6,7-hexahydropyrrolizin-8-yl]methoxy]-6-methyl-spiro[5,8-dihydropyrido[4,3-d]pyrimidine-7,1′-indane]], the IC50 is more than 100 µM. `N#CNC1CCCN(c2nc(OC[C@@]34CCCN3C[C@H](F)C4)nc3c2COC2(CCc4c(Cl)cccc42)C3)C1` (stereo partly drawn) [Compound 29, [1-[4′-chloro-2-[[(2R,8S)-2-fluoro-1,2,3,5,6,7-hexahydropyrrolizin-8-yl]methoxy]spiro[5,8-dihydropyrano[4,3-d]pyrimidine-7,1′-indane]-4-yl]-3-piperidyl]cyanamide] had an IC50 of 10 to 100 µM. With `CN(C)C(=O)c1cc2n(n1)CCCN(c1nc(OC[C@@]34CCCN3C[C@H](F)C4)nc3c1CN(C)C1(CCCc4ccc(O)cc41)C3)C2` (stereo partly drawn) [Compound 39, 5-[7′-hydroxy-6-methyl-2-[[(2R,8S)-2-fluoro-1,2,3,5,6,7-hexahydropyrrolizin-8-yl]methoxy]spiro[5,8-dihydropyrido[4,3-d]pyrimidine-7,1′-tetralin]-4-yl]-N,N-dimethyl-4,6,7,8-tetrahydropyrazolo[1,5-a][1,4]diazepine-2-carboxamide], the IC50 was more than 100 µM. `CN(C)C(=O)c1cc2n(n1)CCCN(c1nc(OC[C@@]34CCCN3C[C@H](F)C4)nc3c1CN(C)[C@@]1(CCCc4ccc(O)cc41)C3)C2` [Compound 39A, 5-[(7S)-2-[[(2R,8S)-2-fluoro-1,2,3,5,6,7-hexahydropyrrolizin-8-yl]methoxy]-7′-hydroxy-6-methyl-spiro[5,8-dihydropyrido[4,3-d]pyrimidine-7,1′-tetralin]-4-yl]-N,N-dimethyl-4,6,7,8-tetrahydropyrazolo[1,5-a][1,4]diazepine-2-carboxamide] had an IC50 of 10 to 100 µM. Under `Cc1c(C(=O)N(C)C)nn2c1CN(c1nc(OC[C@@]34CCCN3C[C@H](F)C4)nc3c1CO[C@@]1(CCc4c(Cl)cccc41)C3)CCC2` [Compound 42, 5-[(7S)-4′-chloro-2-[[(2R,8S)-2-fluoro-1,2,3,5,6,7-hexahydropyrrolizin-8-yl]methoxy]spiro[5,8-dihydropyrano[4,3-d]pyrimidine-7,1′-indane]-4-yl]-N,N,3-trimethyl-4,6,7,8-tetrahydropyrazolo[1,5-a][1,4]diazepine-2-carboxamide] stands 10 to 100 µM.

In general, IC50 refers to the concentration needed to halve the response being measured. A low value points to higher potency.
